Source: patent publication US20260102501A1, “ANTI-CANCER NUCLEAR HORMONE RECEPTOR-TARGETING COMPOUNDS” (Nuvation Bio Inc., priority 2022, published 2026)
Numbered stars: 1 amine (or outer) side, 2 acyl side, 3 side chain; on linkers, the order of the positions; unused ones are H or OH. Square brackets hold non-standard residues; d marks the D form. Peptide text beside a SMILES is read from it. * marks the point of attachment. X1 = CC(=O)O[C@]1(C(C)=O)CC[C@H]2[C@@H]3CCC4=CC(=O)CCC4=C3[C@@H](c3ccc(*)cc3)C[C@@]21C; Exatecan = CC[C@@]1(O)C(=O)OCc2c1cc1n(c2=O)Cc2c-1nc1cc(F)c(C)c3c1c2[C@@H](N*)CC3; NHCH2OCH2CO = O=C(COCN[*:1])[*:2]; Sar = CNCC(=O)O

Assays:
[1] = target: T1, Progesterone PR-B receptors from human breast carcinoma T47D cells (Homo sapiens, UniProt P06401); test: PR binding assay ([3H] Progesterone displacement)
T1 sequence (P06401 1-933): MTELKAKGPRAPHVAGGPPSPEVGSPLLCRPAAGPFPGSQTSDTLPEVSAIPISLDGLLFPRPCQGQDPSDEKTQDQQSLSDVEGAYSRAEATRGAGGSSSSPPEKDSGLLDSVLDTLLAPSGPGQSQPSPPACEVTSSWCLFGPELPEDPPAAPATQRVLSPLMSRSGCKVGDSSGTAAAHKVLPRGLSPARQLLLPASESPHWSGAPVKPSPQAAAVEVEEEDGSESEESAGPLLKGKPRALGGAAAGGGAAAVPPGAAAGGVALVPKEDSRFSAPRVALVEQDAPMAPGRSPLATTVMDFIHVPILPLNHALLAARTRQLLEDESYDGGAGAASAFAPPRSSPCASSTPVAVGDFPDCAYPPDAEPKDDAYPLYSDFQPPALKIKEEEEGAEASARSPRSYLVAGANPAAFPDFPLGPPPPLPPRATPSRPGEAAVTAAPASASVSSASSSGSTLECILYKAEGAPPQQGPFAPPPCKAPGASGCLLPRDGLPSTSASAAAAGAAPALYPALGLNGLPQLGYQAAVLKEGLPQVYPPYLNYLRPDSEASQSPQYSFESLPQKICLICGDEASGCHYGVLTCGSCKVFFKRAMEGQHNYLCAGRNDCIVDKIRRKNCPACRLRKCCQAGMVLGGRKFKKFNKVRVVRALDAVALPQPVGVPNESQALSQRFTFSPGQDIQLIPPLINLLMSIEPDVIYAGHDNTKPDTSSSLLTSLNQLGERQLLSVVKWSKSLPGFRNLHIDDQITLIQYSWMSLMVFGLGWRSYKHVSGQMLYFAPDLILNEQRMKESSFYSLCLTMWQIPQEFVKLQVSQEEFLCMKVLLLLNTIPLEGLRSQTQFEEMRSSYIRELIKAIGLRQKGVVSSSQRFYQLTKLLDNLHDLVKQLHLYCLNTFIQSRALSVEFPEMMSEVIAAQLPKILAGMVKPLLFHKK

[2] = target: T2, GR (cytosol from IM-9 cells) (Homo sapiens, UniProt P04150); test: GR binding assay (3H-Dexamethasone displacement)
T2 sequence (P04150 1-777): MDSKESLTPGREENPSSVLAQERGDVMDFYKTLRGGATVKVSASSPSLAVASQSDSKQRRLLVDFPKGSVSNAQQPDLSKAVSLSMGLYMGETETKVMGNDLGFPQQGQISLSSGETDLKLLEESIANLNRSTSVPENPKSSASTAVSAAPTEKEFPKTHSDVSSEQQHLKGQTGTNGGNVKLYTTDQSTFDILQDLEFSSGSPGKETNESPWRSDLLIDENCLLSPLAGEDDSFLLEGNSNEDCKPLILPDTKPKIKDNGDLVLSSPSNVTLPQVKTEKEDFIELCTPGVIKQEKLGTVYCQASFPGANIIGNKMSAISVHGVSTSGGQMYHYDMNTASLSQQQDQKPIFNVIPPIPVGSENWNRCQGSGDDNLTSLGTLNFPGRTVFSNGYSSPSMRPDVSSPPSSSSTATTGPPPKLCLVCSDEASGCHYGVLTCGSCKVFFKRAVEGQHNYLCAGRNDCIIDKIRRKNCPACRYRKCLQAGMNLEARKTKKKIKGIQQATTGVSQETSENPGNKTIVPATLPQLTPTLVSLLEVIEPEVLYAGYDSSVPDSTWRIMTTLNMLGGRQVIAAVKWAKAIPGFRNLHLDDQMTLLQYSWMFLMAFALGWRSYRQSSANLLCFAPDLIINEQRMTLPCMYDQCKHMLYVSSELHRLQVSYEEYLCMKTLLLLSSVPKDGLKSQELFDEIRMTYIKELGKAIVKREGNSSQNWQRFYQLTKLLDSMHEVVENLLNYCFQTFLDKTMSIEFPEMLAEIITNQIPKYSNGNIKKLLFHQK

[3] = target: T3, Progesterone Receptor (PR)-LBD and coactivator peptide (Homo sapiens, UniProt P06401); test: PR coactivator antagonist assay; details: 2.5 nM PR-LBD, 10 nM progesterone-induced fluorescence response
T3 sequence (P06401 679-913 limits assumed): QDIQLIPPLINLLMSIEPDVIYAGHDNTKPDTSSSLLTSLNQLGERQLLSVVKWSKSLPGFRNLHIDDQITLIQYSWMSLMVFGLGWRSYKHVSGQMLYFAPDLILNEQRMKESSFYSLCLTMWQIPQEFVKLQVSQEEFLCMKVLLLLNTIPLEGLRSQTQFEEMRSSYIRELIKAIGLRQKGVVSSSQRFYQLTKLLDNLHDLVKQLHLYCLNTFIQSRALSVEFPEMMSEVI

T47D cells = test: Cell viability assay (CellTiterGlo); format: cell-based; details: Homo sapiens, 144 h, read-out: T47D (IC50, nM)
22Rv1 cells = test: Cell viability assay (CellTiterGlo); details: Homo sapiens, 22Rv1, 144 h, read-out: 22RV1 (IC50, nM)

CC[C@@]1(O)C(=O)OCc2c1cc1n(c2=O)Cc2c-1nc1cc(F)c(C)c3c1c2[C@@H](NC(=O)COCNC(=O)CNC(=O)[C@H](Cc1ccccc1)NC(=O)CNC(=O)CN(C)c1ccc([C@H]2C[C@@]4(C)[C@@H](CC[C@]4(OC(C)=O)C(C)=O)[C@@H]4CCC5=CC(=O)CCC5=C42)cc1)CC3 [Compound 34, (8S,11R,13S,14S,17R)-17-Acetyl-11-(4-(((S)-10-benzyl-1-(((1S,9S)-9-ethyl-5-fluoro-9-hydroxy-4-methyl-10,13-dioxo-2,3,9,10,13,15-hexahydro-1H,12H-benzo[de]pyrano[3′,4′:6,7]indolizino[1,2-b]quinolin-1-yl)amino)-1,6,9, 12,15-pentaoxo-3-oxa-5,8,11,14-tetraazahexadecan-16-yl)(methyl)amino)phenyl)-13-methyl-3-oxo-2,3,6,7,8,11,12,13,14,15,16,17-dodecahydro-1H-cyclopenta[a]phenanthren-17-yl Acetate] (X1-[Sar]GFG[NHCH2OCH2CO]-Exatecan)
IC50 [1]: < 10 nM | IC50 [2]: < 10 nM | PR antagonism [3]: a (IC50 =< 10 nM) | IC50 (T47D cells): 101 to 1000 nM | IC50 (22Rv1 cells): 101 to 1000 nM
